Measurements reported in patent publication US20260109707A1, “HETEROBIFUNCTIONAL COMPOUNDS AND METHODS OF TREATING DISEASE” (Halda Therapeutics OpCo. Inc., priority 2022, published 2026).
Like-named read-outs stand apart in the source and are kept apart here.

What was measured:
[1] = test system: T-Rex 293 cell line SC3 cells having increased expression of androgen receptor protein due to exposure to doxycycline; assay: Cellular growth inhibition assay, T-Rex 293 SC3 cells with doxycycline (CellTiter-Glo, 72 hours); assay type: cell-based; details: T-Rex 293 SC3 cells with increased androgen receptor expression due to doxycycline (10 ng/mL)
Protocol: (§1) The following types of cells were prepared for this experiment: (i) a T-Rex 293 cell line having increased expression of androgen receptor protein due to exposure to doxycycline and (ii) a T-Rex 293 cell line lacking increased expression of androgen receptor protein. Ability of the test compounds to inhibit proliferation of the foregoing cell types was evaluated according to the procedures set forth below.
(§2) The doxycycline-inducible androgen receptor protein expressing cell line was established using the following protocol: T-Rex 293 cells were purchased from Invitrogen (Cat #R71007) and transfected using Lipofectamine 2000 with the wild-type androgen receptor protein sequence cloned into the pcDNA4/TO vector. Transfected cells were selected using 400 μg/mL Zeocin (Invitrogen Cat #R25001). Following selection, single clones were raised and maintained in Dulbecco's Modified Eagle Medium (DMEM) supplemented with 10% w/w Tetracycline-free fetal bovine serum (FBS) and 250 μg/mL Zeocin. Clones were analyzed for expression of androgen receptor protein in the presence and absence of 10 ng/mL doxycycline (Sigma Cat #D9891), and a single doxycycline-inducible clone (hereinafter “SC3”) was selected for use in downstream assays.
(§3) The SC3 cells were seeded on poly-D-lysine coated, black clear-bottom 384-well plates at 2500/well, in 25 μL Phenol Red Free Dulbecco's Modified Eagle Medium (DMEM) supplemented with 10% w/w charcoal-dextran treated fetal bovine serum (FBS) and 1% w/w pen-strep, with or without 10 ng/mL doxycycline. Pen-Strep is a commercially available mixture of penicillin G and streptomycin, which is used in mammalian cell culture media to prevent bacterial contamination. Phenol Red Free Dulbecco's Modified Eagle Medium (DMEM) supplemented with 10% w/w charcoal-dextran treated fetal bovine serum (FBS) and 1% w/w pen-strep, with or without 10 ng/mL doxycycline is herein referred to as Treatment Medium. Following seeding of cells in the plates, the plates were spun at 300×g for 30 seconds, then equilibrated to room temperature for 30 minutes, and then deposited in a humidified tissue culture incubator maintained at 37° C. with 5% CO2.
(§4) At 24 hours after seeding of the cells, dilutions of test compound were prepared in DMSO and dissolved in Treatment Medium, to achieve a final DMSO concentration of 0.5% w/w, thereby providing the Test Compound Solution. A 25 μL aliquot of the Test Compound Solution was added to cells in the well plates. An equal volume of a solution containing DMSO and Treatment Medium was used as a negative control. Following treatment of cells with Test Compound Solution or said equal volume of a solution containing DMSO and Treatment Medium, the plates were spun at 300×g for 30 seconds, and then left in an incubator for 72 hours.
(§5) At the end of the treatment duration, cell viability was quantified with CellTiter-Glo 2.0 reagent (Promega Cat #G9243). For this purpose, plates were equilibrated to room temperature for 30 minutes, and then 25 μL of CellTiter-Glo 2.0 reagent was added to cells in the plate wells. Plates were then agitated on a shaker for two minutes at 500 rpm and subsequently incubated at room temperature for 10 minutes. Following incubation, the plates were spun at 3000×g for 30 seconds, then sealed with an optical adhesive cover, and luminescence readings were measured with an EnVision Plate Reader.
(§6) Data was normalized using zero luminescence for baseline. A four-parameter non-linear regression curve fit was applied to dose-response data in GraphPad Prism data analysis software to determine the half-maximal growth inhibitory concentration (GI50) for each test compound.

[2] = test system: T-Rex 293 cell line SC3 cells lacking increased expression of androgen receptor protein; assay: Cellular growth inhibition assay, T-Rex 293 SC3 cells without doxycycline (CellTiter-Glo, 72 hours); assay type: cell-based; details: T-Rex 293 cell line SC3 cells not exposed to doxycycline (lacking increased androgen receptor expression)
Protocol: as §1, §2, §3, §4, §5, §6

VCaP cells = assay: Cellular growth inhibition assay for VCaP cells (CellTiter-Glo, 72 hours); assay type: cell-based, human
Protocol: VCaP cells were purchased from American Type Cell Culture (ATCC Cat #CRL2876) and then seeded on poly-D-lysine coated, black clear-bottom 384-well plates at 5000/well in 25 μL Dulbecco's Modified Eagle Medium (DMEM) supplemented with 10% w/w Fetal bovine serum (FBS) and 1% w/w Pen-Strep. Pen-Strep is a commercially available mixture of penicillin G and streptomycin, which is used in mammalian cell culture media to prevent bacterial contamination. Dulbecco's Modified Eagle Medium (DMEM) supplemented with 10% w/w fetal bovine serum (FBS) and 1% w/w Pen-Strep is herein referred to as Treatment Medium. Following seeding of cells in the plates, the plates were spun at 300×g for 30 seconds, then equilibrated to room temperature for 30 minutes, and then deposited in a humidified tissue culture incubator maintained at 37° C. with 5% C0-2.
as §4, §5, §6

Structure (SMILES)	GI50 (VCaP cells) [nM]	GI50 (VCaP cells; Homo sapiens, VCaP, 72 h) [nM]	GI50 [1] [nM]	GI50 [2] [nM]	GI50 ([1]; 72 h) [nM]	GI50 ([2]; 72 h) [nM]
COCC[C@@H]1N=C(c2ccc(C3CCC4(CC3)CCN(c3ccc(C(=O)N[C@H]5CC[C@H](Oc6ccc(C#N)c(Cl)c6)CC5)nn3)C4)cc2)c2c(sc(C)c2C)-n2c(C)nnc21 (single isomer, unassigned) [I-618]	< 500	–	< 500	< 500	–	–
COCC[C@@H]1N=C(c2ccc(C3CCC4(CC3)CCN(c3ccc(C(=O)N[C@H]5CC[C@H](Oc6ccc(C#N)c(Cl)c6)CC5)nn3)C4)cc2)c2c(sc(C)c2C)-n2c(C)nnc21 (single isomer, unassigned) [I-619]	< 500	–	< 500	> 3000	–	–
CC[C@@H]1N=C(c2ccc(C3CCC4(CC3)CCN(c3ccc(C(=O)N[C@H]5CC[C@H](Oc6ccc(C#N)c(Cl)c6)CC5)nn3)C4)cc2)c2c(sc(C)c2C)-n2c(C)nnc21 (single isomer, unassigned) [I-633]	1500 to 3000	–	< 500	< 500	–	–
Cc1sc2c(c1C)C(c1ccc(Cl)cc1)=N[C@@H](CC(=O)NCCOCCOCCOCCOCCOCCOCCOC1CCN(c3ccc(C(=O)N[C@H]4CC[C@H](Oc5ccc(C#N)c(Cl)c5)CC4)nn3)CC1)c1nnc(C)n1-2 [I-4, N-[4-(3-chloro-4-cyano-phenoxy)cyclohexyl]-6-[14-[2-[2-[2-[2-[2-[2-[2-[[2-[(9S)-7-(4-chlorophenyl)-4,5,13-trimethyl-3-thia-1,8,11,12-tetrazatricyclo[8.3.0.2,6]trideca-2(6),4,7,10,12-pentaen-9-yl]acetyl]amino]ethoxy]ethoxy]ethoxy]ethoxy]ethoxy]ethoxy]ethoxy]-1-piperidyl]pyridazine-3-carboxamide]	–	< 500	–	–	500 to 1500	> 3000
Cc1sc2c(c1C)C(c1ccc(Cl)cc1)=N[C@@H](CC(=O)NCCCCCOC1CCN(c3ccc(C(=O)N[C@H]4CC[C@H](Oc5ccc(C#N)c(Cl)c5)CC4)nn3)CC1)c1nnc(C)n1-2 [I-5]	–	< 500	–	–	< 500	< 500
CCNC(=O)C[C@@H]1N=C(c2cccc(OCCOCCOCCOC3CCN(c4ncc(C(=O)N[C@H]5CC[C@H](Oc6ccc(C#N)c(Cl)c6)CC5)cn4)CC3)c2)c2c(sc(C)c2C)-n2c(C)nnc21 [I-11]	–	500 to 1500	–	–	< 500	> 3000
CCNC(=O)C[C@@H]1N=C(c2ccc(OCCCOC3CCN(c4ccc(C(=O)N[C@H]5CC[C@H](Oc6ccc(C#N)c(Cl)c6)CC5)nn4)CC3)cc2)c2c(sc(C)c2C)-n2c(C)nnc21 [I-14]	–	< 500	–	–	< 500	< 500
CCNC(=O)C[C@@H]1N=C(c2ccc(CCCCCCOC3CCN(c4ccc(C(=O)N[C@H]5CC[C@H](Oc6ccc(C#N)c(Cl)c6)CC5)nn4)CC3)cc2)c2c(sc(C)c2C)-n2c(C)nnc21 [I-22]	–	500 to 1500	–	–	< 500	500 to 1500
CCNC(=O)C[C@@H]1N=C(c2cccc(OCCOCCOC3CCN(c4ccc(C(=O)N[C@H]5CC[C@H](Oc6ccc(C#N)c(Cl)c6)CC5)nn4)CC3)c2)c2c(sc(C)c2C)-n2c(C)nnc21 [I-23]	–	> 3000	–	–	< 500	1500 to 3000
Cc1sc2c(c1C)C(c1ccc(C#CC3CC4(CCCN(c5ccc(C(=O)N[C@H]6CC[C@H](Oc7ccc(C#N)c(Cl)c7)CC6)nn5)C4)C3)cc1)=NC1(CC1)c1nnc(C)n1-2 (some centres unmarked) [I-445]	–	< 500	–	–	–	> 3000
Cc1sc2c(c1C)C(c1ccc(N3CCC4(CCN(c5ccc(C(=O)N[C@H]6CC[C@H](Oc7ccc(C#N)c(Cl)c7)CC6)nn5)C4)C3)cc1)=N[C@@H](C)c1nnc(C)n1-2 (some centres unmarked) [I-512]	–	< 500	–	–	–	< 500
Cc1sc2c(c1C)C(c1ccc(CC3CC(OC4CCN(c5ccc(C(=O)NC6CCC(Oc7ccc(C#N)c(Cl)c7)CC6)nn5)CC4)C3)cc1)=NC(C)c1nnc(C)n1-2 (centres unmarked) [I-588]	–	< 500	–	–	–	–
COC[C@@H]1N=C(c2ccc(C3CCC4(CC3)CCN(c3ccc(C(=O)N[C@H]5CC[C@H](Oc6ccc(C#N)c(Cl)c6)CC5)nn3)C4)cc2)c2c(sc(C)c2C)-n2c(C)nnc21 (some centres unmarked) [I-601]	–	< 500	–	–	< 500	–

Now from value to compound, other results behind:

GI50 (VCaP cells) [nM]	GI50 (VCaP cells; Homo sapiens, VCaP, 72 h) [nM]	Structure (SMILES)	GI50 [1] [nM]	GI50 [2] [nM]	GI50 ([1]; 72 h) [nM]	GI50 ([2]; 72 h) [nM]
< 500	–	Cc1sc2c(c1C)C(c1ccc(C3CCC4(CC3)CCN(c3ccc(C(=O)N[C@H]5CC[C@H](Oc6ccc(C#N)c(Cl)c6)CC5)nn3)C4)cc1)=NC(C(F)(F)F)c1nnc(C)n1-2 (mixture of isomers) [I-742]	> 3000	> 3000	–	–
< 500	–	Cc1sc2c(c1C)C(c1ccc(NCC3CCN(c4ncc(C(=O)N[C@H]5CC[C@H](Oc6ccc(C#N)c(Cl)c6)CC5)cn4)C3)cc1)=NC(Cc1ncco1)c1nnc(C)n1-2 (mixture of isomers) [I-788]	< 500	< 500	–	–
–	< 500	Cc1sc2c(c1C)C(c1ccc(C#CC3CC4(C3)CN(c3ccc(C(=O)N[C@H]5CC[C@H](Oc6ccc(C#N)c(Cl)c6)CC5)nn3)C4)cc1F)=NC(Cc1ncco1)c1nnc(C)n1-2 (mixture of isomers) [I-828, N-[4-(3-chloro-4-cyano-phenoxy)cyclohexyl]-6-[6-[2-[3-fluoro-4-[4,5,13-trimethyl-9-(oxazol-2-ylmethyl)-3-thia-1,8,11,12-tetrazatricyclo[8.3.0.02,6]trideca-2(6),4,7,10,12-pentaen-7-yl]phenyl]ethynyl]-2-azaspiro[3.3]heptan-2-yl]pyridazine-3-carboxamide]	–	–	< 500	< 500
< 500	–	CC[C@@H]1N=C(c2ccc(C3CCC4(CC3)CCN(c3ccc(C(=O)N[C@H]5CC[C@H](Oc6ccc(C#N)c(Cl)c6)CC5)nn3)C4)cc2)c2c(sc(C)c2C)-n2c(C)nnc21 (single isomer, unassigned) [I-634]	< 500	500 to 1500	–	–
< 500	–	Cc1sc2c(c1C)C(c1ccc(N3CCC4(CC3)CCN(c3ccc(C(=O)N[C@H]5CC[C@H](Oc6ccc(C#N)c(Cl)c6)CC5)nn3)C4)cc1)=NC(C(F)(F)F)c1nnc(C)n1-2 (single isomer, unassigned) [I-719]	< 500	> 3000	–	–
> 3000	–	Cc1sc2c(c1C)C(c1ccc(N3CCC4(CC3)CCN(c3ccc(C(=O)N[C@H]5CC[C@H](Oc6ccc(C#N)c(Cl)c6)CC5)nn3)C4)cc1)=NC(C(F)(F)F)c1nnc(C)n1-2 (single isomer, unassigned) [I-720]	> 3000	> 3000	–	–
–	< 500	Cc1sc2c(c1C)C(c1ccc(N3CCOC4(CCN(c5ccc(C(=O)N[C@H]6CC[C@H](Oc7ccc(C#N)c(Cl)c7)CC6)nn5)C4)C3)cc1)=N[C@@H](C)c1nnc(C)n1-2 (single isomer, unassigned) [I-827]	–	–	< 500	< 500
–	< 500	Cc1sc2c(c1C)C(c1ccc(N3C[C@@H]4CN(c5ccc(C(=O)N[C@H]6CC[C@H](Oc7ccc(C#N)c(Cl)c7)CC6)nn5)C[C@H]4C3)cc1)=N[C@@H](C)c1nnc(C)n1-2 [I-677]	–	–	< 500	–
–	< 500	COC[C@@H]1N=C(c2ccc(OC3CC4(CCCN(c5ccc(C(=O)N[C@H]6CC[C@H](Oc7ccc(C#N)c(Cl)c7)CC6)nn5)C4)C3)cc2)c2c(sc(C)c2C)-n2c(C)nnc21 (some centres unmarked) [I-693]	–	–	–	< 500
